Measurements published in PMC10035507, “Inhibiting IGF1R-mediated Survival Signaling in Head and Neck Cancer with the Peptidomimetic SSTNIGF1R” (Cancer Research Communications, 2023).
Ends that are not written are not given here.

What was measured:
UM-SCC47 cells [1] = experiment: Caspase assay (Caspase 3/7-GLO); type: cell-based, human; settings: 24 hours, increasing concentrations of NQD1 up to 30 μmol/L
Protocol: (§1) The activation of stress/apoptosis markers was analyzed as described previously ([17]). Caspase activity was measured in cells in complete culture medium with SSTNIGF1R or ASK inhibitor for 24 hours using Caspase 3/7-GLO in accordance with the manufacturer's instructions.

UM-SCC47 cells [2] = system: UM-SCC47 cells
SCC25 cells [3] = system: SCC25 cells
TU-138 HNSCC cell line = experiment: Cell proliferation assay (CellTiter-GLO); type: cell-based, human; settings: 4 days, up to 30 μmol/L, n = 4
Protocol: (§2) Cells (1–2 × 10^3/well) were plated in 96-well plates in complete culture medium in the presence or absence of the SSTNIGF1R peptide for 72–120 hours, or alternatively in the presence or absence of the SSTNIGF1R peptide or ASK inhibitor for 24 hours. Cell growth was measured against a standard curve using CellTiter-GLO, in accordance with the manufacturer's instructions.

UD-SCC2 HNSCC cell line = experiment: Cell proliferation assay (CellTiter-GLO); type: cell-based, human; settings: 4 days, up to 30 μmol/L, n = 4
Protocol: as §2

SCC90 HNSCC cell line = experiment: Cell proliferation assay (CellTiter-GLO); type: cell-based, human; settings: 4 days, up to 30 μmol/L, n = 4
Protocol: as §2

SCC6 HNSCC cell line = experiment: Cell proliferation assay (CellTiter-GLO); type: cell-based, human; settings: 4 days, up to 30 μmol/L, n = 4
Protocol: as §2

UM-SCC1 HNSCC cell line = experiment: Cell proliferation assay (CellTiter-GLO); type: cell-based, human; settings: 4 days, up to 30 μmol/L, n = 4
Protocol: as §2

normal HTE cells = experiment: Cell proliferation assay (CellTiter-GLO); type: cell-based, human; settings: 4 days, up to 30 μmol/L, n = 3
Protocol: as §2

[4] = system: NOKs (normal oral keratinocytes); experiment: Cell proliferation assay (CellTiter-GLO); type: cell-based, human; settings: NOK, 4 days, up to 30 μmol/L, n = 3
Protocol: as §2

HaCaT keratinocytes = experiment: Cell proliferation assay (CellTiter-GLO); type: cell-based, human; settings: 4 days, up to 30 μmol/L, n = 3
Protocol: as §2

[5] = biological target: T1, ITGAV and IGF1R pairing in UW-SCC22 PDX tumors (Homo sapiens, UniProt P08069); experiment: PLA between IGF1R and ITGAV on tumor sections; type: in vivo, nude mice; settings: 4 weeks
T1 construct: from tissue; host or cells: UW-SCC22 and UW-SCC64 PDX tumours, subcutaneous in nude mice
Protocol: (§3) Paraffin-embedded PDX sections, sections of deidentified archival tumors from patients with tonsil carcinoma, or TMAs assembled from patients with deidentified oropharyngeal (TMA-01, TMA-02) or adenoid cystic (TMA-03) carcinoma were deparaffinized and subjected to antigen retrieval by heating in 10 mmol/L sodium citrate (pH 6.0) with 0.05% Tween 20 until boiling and then maintained at 99°C for 20 minutes before cooling to room temperature. The sections were then used for receptor and PLA staining, as described above. Fluorescent images were acquired using either a Zeiss PlanAPOCHROMAT 20X objective (0.8 NA) or 40X (1.4 NA) and a Zeiss AxioCam Mrm CCD camera on a Zeiss Axio Imager.M2 microscopy system. CellProfiler 3.1.5 (Carpenter Lab, Broad Institute of Harvard and MIT) was used to quantify nuclei and PLA signals with threshold limits based on relevant comparative controls. Cell Profiler software analysis was checked by direct comparison with visual quantification of PLA dots or DAPI-stained nuclei in test images to accurately quantify PLA dots per cell and to exclude false or background fluorescence. The specificity of the antibodies used and the concentrations of PLA reagents used were optimized on test samples before use on experimental sections.

[6] = biological target: T2, ITGAV and IGF1R pairing in UW-SCC64 PDX tumors (Homo sapiens, UniProt P08069); experiment: PLA between IGF1R and ITGAV on tumor sections; type: in vivo, nude mice; settings: pump
T2 construct: from tissue; host or cells: UW-SCC22 and UW-SCC64 PDX tumours, subcutaneous in nude mice
Protocol: as §3

IGF1R in UM-SCC47 cells = biological target: T3, IGF1R in UM-SCC47 cells (Homo sapiens, UniProt P08069); experiment: IGF1R activation (pY1131) by immunoprecipitation and Western blot; type: cell-based; settings: 3 hours, 100 ng/mL DES(1–3)IGF1, 30 μmol/L hSSTNIGF1R
T3 construct: constitutively active IGF1R is identified in UW-SCC47 cells by staining for pY1131; endogenous in cells; host or cells: UM-SCC47
Protocol: (§4) Immunoprecipitation of IGF1R with or without competing SSTN peptide was carried out as described previously ([18, 19]) using 0.5–1.0 mg of input/sample and lysis buffer supplemented with HALT protease and phosphatase inhibitor cocktail (Thermo Fisher Scientific).

IGF1R in HaCat cells = biological target: T4, IGF1R in HaCat cells (Homo sapiens, UniProt P08069); experiment: as above; type: cell-based; settings: 3 hours, 100 ng/mL DES(1–3)IGF1, 30 μmol/L hSSTNIGF1R
T4 construct: endogenous in cells; host or cells: HaCat
Protocol: as §4

Serum IGF1 ELISA = type: in vivo, mice; settings: for IGF1 (ng/mL) ± SD: hSSTNIGF1R delivered by Alzet pumps, ELISA, n = 6
Protocol: (§5) SSTNIGF1R levels in the serum of treated animals were measured in triplicate using an AB Sciex QTrap 5500 mass spectrometry system at the UW School of Pharmacy and quantified by comparison with a standard curve of peptide in mouse serum. IGF1 levels in the serum of animals bearing UW-SCC22 or UW-SCC64 tumors were measured using an ELISA kit from Thermo Fisher Scientific (EMIGF1) and compared with a mouse IGF1 standard according to the manufacturer's instructions.

[7] = system: Sdc1, IGF1R, ITGAV cell surface expression in UM-SCC47 cells; experiment: Immunofluorescent receptor staining of cultured cells; type: cell-based, human; settings: UM-SCC47 cells pretreated 6 hours with 30 μmol/L, compared with vehicle alone
Protocol: (§6) UM-SCC47 cells treated with or without the SSTNIGF1R peptide for 6 hours were fixed in 4% paraformaldehyde, permeabilized in 0.5% Triton X-100 in 1× CMF-PBS (pH 7.4), and blocked for 1 hour at room temperature in a 3% BSA/CMF-PBS solution. Cells were stained with 1 μg/mL anti-Sdc1 polyclonal antibody, 2 μg/mL ITGAV antibody (NBP1-85746), or 4 μg/mL antibody to IGF1R (AF-305-NA) for 1 hour at room temperature, followed by incubation with 4 μg/mL Alexa488-conjugated secondary antibodies for 1 hour at room temperature. The nuclei were stained with 3 μmol/L DAPI (Molecular Probes) in 1× CMF-PBS (pH 7.4) for 10 minutes. For PLA, antibodies against ITGAV and IGF1R were used as described previously, followed by staining with PLA reagents according to the manufacturer's instructions.

UW-SCC64 PDX = experiment: PDX tumor growth in nude mice; type: in vivo; settings: peptide delivered by the pump only, P < 0.001
From the text: (§7) Animal studies were approved by the University of Wisconsin–Madison Institutional Animal Care and Use Committee in accordance with the NIH guidelines. UW-SCC22 or UW-SCC64 PDXs derived from head and neck tumors ([31, 32]) were provided by Wisconsin Head and Neck Cancer SPORE (https://hn-spore.wisc.edu). Minced tissue isolated from host mice was subcutaneously injected into both flanks of 6–8 weeks old female, athymic Foxn1^nu outbred nude mice (Harlan Laboratories). After 1 week, animals were randomized and surgically implanted with Alzet (Durect Corp.) osmotic pumps (Model 2004) delivering 0.25 μL/hour of either PBS or PBS containing 4 mmol/L hSSTNIGF1R for 4 weeks. Animals were humanely sacrificed, bled, and tumors were removed and fixed in 4% paraformaldehyde before paraffin embedding and sectioning.

UW-SCC22 HNSCC PDX = experiment: PDX tumor growth in nude mice; type: in vivo; settings: 4 weeks; for reduction of tumor growth compared with controls: P < 0.001
From the text: as §7

[8] = system: ASK1 (pT845), pp38MAPK, pJNK in UM-SCC47 cells; experiment: Temporal activation of ASK1, p38MAPK and JNK; type: cell-based, human; settings: 30 minutes after treatment with 30 μmol/L hSSTNIGF1R
[9] = system: ASK-1 in UW-SCC22 PDX tumors; experiment: pT845-ASK1 staining of tumor sections; type: in vivo, nude mice; settings: UW-SCC22 tumors treated by injection or pump for 4 weeks
Protocol: as §3

[10] = system: ASK-1 in UW-SCC64 PDX tumors; experiment: pT845-ASK1 staining of tumor sections; type: in vivo, nude mice; settings: as early as the 3-day timepoint
Protocol: as §3

NOK = experiment: Stress and apoptosis marker antibody array; type: cell-based, human; settings: 16 hours, 30 μmol/L (mSSTNIGF1R per Fig. 4B)
Protocol: as §1

HTE = experiment: Stress and apoptosis marker antibody array; type: cell-based, human; settings: 16 hours, 30 μmol/L (mSSTNIGF1R per Fig. 4B)
Protocol: as §1

SCC25 cells [11] = experiment: Stress and apoptosis marker antibody array; type: cell-based, human; settings: SCC25 lysates; 16 hours, 30 μmol/L (mSSTNIGF1R per Fig. 4B); compared with vehicle
Protocol: as §1

HaCaT keratinocyte = experiment: Stress and apoptosis marker antibody array; type: cell-based, human; settings: 16 hours, 30 μmol/L (mSSTNIGF1R per Fig. 4B)
Protocol: as §1

UM-SCC47 cells [12] = experiment: Stress and apoptosis marker antibody array; type: cell-based, human; settings: UM-SCC47 lysates; 16 hours, 30 μmol/L (mSSTNIGF1R per Fig. 4B); compared with vehicle
Protocol: as §1

[13] = biological target: T5, IGF1R and ITGAV pairing (Sdc1:IGF1R:ITGAV receptor complex) in UM-SCC47 cells (Homo sapiens, UniProt P08069); experiment: Proximity ligation assay ITGAV:IGF1R in cultured cells; type: cell-based; settings: UM-SCC47 cells pretreated for 6 hours with 30 μmol/L; 15 images over three experiments
T5 construct: endogenous in cells; host or cells: UM-SCC47
Protocol: as §6

[14] = allows use as a therapeutic agent in vivo; cited from earlier work
[15] = Serum peptide analysis by mass spectrometry; settings: mouse, in vivo, sc, mice, following sacrifice, 4.3 mg/kg/day by twice weekly subcutaneous injection, triplicate, read-out: steady-state concentration in plasma
Protocol: as §5

T1 sequence (P08069 31-736 limits assumed): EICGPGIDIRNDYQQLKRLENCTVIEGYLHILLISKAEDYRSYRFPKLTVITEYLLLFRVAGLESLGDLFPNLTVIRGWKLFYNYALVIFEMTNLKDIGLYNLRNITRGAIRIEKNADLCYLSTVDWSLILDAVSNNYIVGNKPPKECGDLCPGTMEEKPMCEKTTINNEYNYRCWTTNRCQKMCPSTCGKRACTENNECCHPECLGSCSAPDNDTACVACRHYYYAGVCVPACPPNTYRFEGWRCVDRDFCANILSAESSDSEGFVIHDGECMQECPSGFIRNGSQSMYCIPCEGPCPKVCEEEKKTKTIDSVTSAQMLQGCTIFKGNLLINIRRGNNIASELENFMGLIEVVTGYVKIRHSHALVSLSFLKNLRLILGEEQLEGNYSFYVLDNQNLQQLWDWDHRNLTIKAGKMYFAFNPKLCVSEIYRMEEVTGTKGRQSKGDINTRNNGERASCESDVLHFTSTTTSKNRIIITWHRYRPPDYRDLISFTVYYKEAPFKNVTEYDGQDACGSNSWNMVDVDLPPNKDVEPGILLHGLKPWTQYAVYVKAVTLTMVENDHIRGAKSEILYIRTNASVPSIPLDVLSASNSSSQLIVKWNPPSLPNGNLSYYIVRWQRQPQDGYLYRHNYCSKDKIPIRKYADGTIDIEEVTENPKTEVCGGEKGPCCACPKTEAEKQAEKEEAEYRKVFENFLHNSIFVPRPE
T2 sequence (P08069 31-736 limits assumed): as above
T5 sequence (P08069 31-736 limits assumed, one chain of several): as the sequence (P08069 31-736 limits assumed) above
T4 sequence (P08069 31-1367): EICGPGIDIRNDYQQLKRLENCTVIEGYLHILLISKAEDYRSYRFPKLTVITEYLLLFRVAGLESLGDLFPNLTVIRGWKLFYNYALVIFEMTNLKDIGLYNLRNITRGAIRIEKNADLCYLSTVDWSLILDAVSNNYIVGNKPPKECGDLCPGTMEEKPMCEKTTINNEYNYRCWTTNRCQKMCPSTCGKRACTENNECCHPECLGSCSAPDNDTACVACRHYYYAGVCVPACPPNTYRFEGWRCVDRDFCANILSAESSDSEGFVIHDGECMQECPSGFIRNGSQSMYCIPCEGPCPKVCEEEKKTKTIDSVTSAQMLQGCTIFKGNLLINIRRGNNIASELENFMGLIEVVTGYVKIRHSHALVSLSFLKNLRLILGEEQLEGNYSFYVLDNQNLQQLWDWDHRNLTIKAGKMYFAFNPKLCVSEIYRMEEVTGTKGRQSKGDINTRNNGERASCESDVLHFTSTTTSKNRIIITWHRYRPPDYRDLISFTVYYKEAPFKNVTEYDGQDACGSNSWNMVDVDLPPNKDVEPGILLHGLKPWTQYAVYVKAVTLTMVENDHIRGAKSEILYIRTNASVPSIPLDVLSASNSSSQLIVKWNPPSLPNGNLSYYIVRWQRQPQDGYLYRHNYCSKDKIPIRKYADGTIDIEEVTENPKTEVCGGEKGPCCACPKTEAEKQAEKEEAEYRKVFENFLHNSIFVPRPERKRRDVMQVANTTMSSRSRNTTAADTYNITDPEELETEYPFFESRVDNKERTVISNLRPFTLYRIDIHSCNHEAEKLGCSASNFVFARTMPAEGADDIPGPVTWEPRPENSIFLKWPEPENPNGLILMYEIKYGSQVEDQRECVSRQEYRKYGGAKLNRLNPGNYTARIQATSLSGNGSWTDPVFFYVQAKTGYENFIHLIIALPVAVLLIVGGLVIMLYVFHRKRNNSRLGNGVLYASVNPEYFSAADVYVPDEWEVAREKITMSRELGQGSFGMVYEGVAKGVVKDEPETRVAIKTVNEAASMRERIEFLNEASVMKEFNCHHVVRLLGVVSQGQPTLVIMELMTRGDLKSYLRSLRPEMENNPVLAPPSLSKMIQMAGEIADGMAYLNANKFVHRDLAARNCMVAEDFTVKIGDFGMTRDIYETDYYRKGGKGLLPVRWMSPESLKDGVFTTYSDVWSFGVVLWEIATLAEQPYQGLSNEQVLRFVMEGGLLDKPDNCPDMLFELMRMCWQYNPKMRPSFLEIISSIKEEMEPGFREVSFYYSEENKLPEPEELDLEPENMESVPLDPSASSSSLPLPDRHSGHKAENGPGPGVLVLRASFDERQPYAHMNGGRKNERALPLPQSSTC
T3 sequence (P08069 31-1367): as above

CCOC(=O)c1c2c3c(cccc3[nH]c1=O)C(=O)c1ccccc1-2 [NQD1, NQDI-1]
caspase 3 activation induced by 30 μmol/L SSTNIGF1R (UM-SCC47 cells [1]): gradually reduce
restoration of cell growth in the SSTN-treated cells (UM-SCC47 cells [2]; UM-SCC47, 24 hours, NQD1 up to 30 μmol/L with 30 μmol/L SSTNIGF1R, CellTiter-GLO): 80%

LPAGEKPEEGEPVLHVEAEPGFTARDKE [active mSSTNIGF1R]
IC50 (SCC25 cells [3]): 1 to 10 µM
IC50 (UM-SCC47 cells [2]): 1 to 10 µM
cell growth (TU-138 HNSCC cell line): reduced growth
cell growth (UD-SCC2 HNSCC cell line): reduced growth
cell growth (SCC90 HNSCC cell line): reduced growth
cell growth (SCC6 HNSCC cell line): reduced growth
cell growth (UM-SCC1 HNSCC cell line): reduced growth
cell growth (normal HTE cells): unaffected
cell growth [4]: unaffected
cell growth (HaCaT keratinocytes): unaffected

STSTLPAGEGPKEGEAVVLPEVEPGLTAREQE [hSSTNIGF1R]
reduction of ITGAV and IGF1R pairing (PLA) ([5]; plasma concentration 13 μmol/L (injection), versus saline-treated tumors): 90%
ITGAV and IGF1R pairing (PLA) ([5]; plasma concentration 32 μmol/L, pump-mediated delivery): reduced to nearly undetectable levels
reduction of ITGAV and IGF1R pairing (PLA) ([6]; UW-SCC64 tumors after 3-day treatment): 80%
ITGAV and IGF1R pairing (PLA) ([6]; UW-SCC64 tumors, 5-week treatment): essentially abolished
IGF1-mediated activation of IGF1R (pY1131) (IGF1R in UM-SCC47 cells): blocked
IGF1-mediated activation of IGF1R (pY1131) (IGF1R in HaCat cells): unaffected
serum levels of IGF1 (Serum IGF1 ELISA; animals bearing UW-SCC22 tumors): no change
serum levels of IGF1 (Serum IGF1 ELISA; animals bearing UW-SCC64 tumors): no change
IGF1 (ng/mL) ± SD (Serum IGF1 ELISA; serum of mice bearing UW-SCC22, saline control 34.8 ± 1.0): 34.6 ± 0.9 ng/mL
IGF1 (ng/mL) ± SD (Serum IGF1 ELISA; serum of mice bearing UW-SCC64, saline control 34.0 ± 0.9): 33.7 ± 1.1 ng/mL
cell surface expression of Sdc1, IGF1R, ITGAV [7]: no change
reduction of tumor growth compared with saline-treated controls (UW-SCC64 PDX): 85%
reduction of tumor growth compared with controls (UW-SCC22 HNSCC PDX; 4.3 mg/kg/day, Alzet pump): approximately 94%
tumor size after treatment (UW-SCC22 HNSCC PDX; 4.3 mg/kg/day, constant infusion via Alzet pump, start 102 ± 21 mm^3, saline 2,767 ± 631 mm^3): 270 ± 49 mm^3
tumor size after treatment (UW-SCC22 HNSCC PDX; 4.3 mg/kg/day, twice weekly subcutaneous injection): 664 ± 138 mm^3
reduction of tumor growth compared with controls (UW-SCC22 HNSCC PDX; twice weekly subcutaneous injection): 79%
active ASK1 (pT845), pp38MAPK, and pJNK [8]: increased
pT845-ASK-1 staining [9]: Positive staining
pT845-ASK1 staining [10]: pT845 staining indicative of ASK-1 activation
change in apoptotic markers (antibody array) (NOK): little or no response
change in apoptotic markers (antibody array) (HTE): little or no response
change in apoptotic markers (antibody array) (SCC25 cells [11]): significant increases in activated caspase 3 and PARP, and reduced levels of survivin and phosphorylated Erk, Akt, and Bad
change in apoptotic markers (antibody array) (HaCaT keratinocyte): little or no response
change in apoptotic markers (antibody array) (UM-SCC47 cells [12]): significant increases in activated caspase 3 and PARP, and reduced levels of survivin and phosphorylated Erk, Akt, and Bad
PLA signal, colocalization of IGF1R and ITGAV [13]: signal is lost
half-life [14]: ~24 h
level at time molar [15]: 13 µM

inactive mSSTNIGF1R: Inactive control peptide, amino acids 94–119 of mouse Sdc1 (AGEKPEEGEPVLHVEAEPGFTARDKE; UniProt P18828 94-119, looked up, fragment) [reference compound]
effect on cell numbers (SCC25 cells [3]; SCC25, up to 6 days, concentration range, CellTiter-GLO): no effect
effect on cell numbers (UM-SCC47 cells [2]; UM-SCC47, up to 6 days, concentration range, CellTiter-GLO): no effect
